Results from EP0563281B1, “METHOD FOR PROCESSING ELECTRICALLY CONDUCTIVE POLYANILINES IN LEWIS-BASE SOLVENTS” (MONSANTO COMPANY, priority 1990, dated 1992).
Like-named read-outs stand apart in the source and are kept apart here.

Assays:
[1] = Hansen's method for solubility parameters and interaction distance r relative to polyaniline base; details: for r: Table 5, interaction distance to polyaniline base (17.4, 8.5, 10.4)
Text: When multiple literature source were found with widely differing values, those sets of values were taken which were the closest to those theoretically predicted for the given solvent.

[2] = cited from earlier work
[3] = cited from earlier work; for m: dipole moment; for mp: dipole moment of non-solvent
[4] = Solvent test with undoped (neutralized) polyaniline (Example 8); format: physicochemical; details: polyaniline synthesized as in Example 1, undoped with aqueous sodium carbonate
Procedure: A series of potential solvents with significant polar and hydrogen bonding contributions were tested with polyaniline which had been synthesized as in Example 1 and then undoped (neutralized) by treatment with an aqueous solution of sodium carbonate.

[5] = Table 5, Hansen parameter of the liquid
[6] = Table 4, Hildebrand (solubility) parameter
[7] = Table 4, dielectric constant relative to permittivity of free space
[8] = Table 4, relative sound velocity in paper wetted by the solvent (water = 100), hydrogen bonding capability
[9] = Table 6, second half, Hansen parameter of non-solvent
[10] = Table 6, Hansen parameter of non-solvent
[11] = Table 6, Hildebrand parameter of non-solvent

| SMILES | dd [2, 5] [MPa] | dh [2, 5] [MPa] | dp [2, 5] [MPa] | d [3, 6] [MPa] | e [3, 7] | m ([3]; Table 4) | also measured |
| --- | --- | --- | --- | --- | --- | --- | --- |
| Nc1ccccc1 [aniline] | 19.4 | 10.0 | 5.1 | 22.6 | 6.9 | 5.0 10^-30 Cm | r [1]: 5.3; gw [3, 8]: 94.0 |
| CCNc1ccccc1 [N-Ethylaniline] |  |  |  |  |  |  | dh [2, 9]: 7.7 MPa; dp [2, 9]: 10.5 MPa; dd [2, 10]: 17.1 MPa; d [3, 11]: 21.5 MPa |
| CCCNCCC [dipropylamine] |  |  |  |  |  |  | dh [2, 9]: 5.8 MPa; dp [2, 9]: 6.2 MPa; dd [2, 10]: 14.0 MPa; d [3, 11]: 16.3 MPa |
| Cc1ccccn1 [Picoline] | 18.2 | 6.8 | 7.8 | 20.9 | 9.8 | 6.3 10^-30 Cm | r [1]: 4.0 |
| CCCCN [butylamine] | 13.6 | 8.0 | 8.1 | 18.6 | 5.3 | 4.7 10^-30 Cm | e ([3]; Table 7, Dielectric Constant): 5.3; d ([3]; Table 7, Hildebrand Parameter): 17.7 MPa; pKa ([3]; Table 7): 10.8 |
| NCCN [ethylenediamine] | 16.6 | 17.0 | 8.8 |  | 12.9 | 6.6 10^-30 Cm | e ([3]; Table 7, Dielectric Constant): 12.9; pKa ([3]; Table 7): 10.1 |
| CCCN [propylamine] | 13.9 | 7.2 | 9.3 |  | 5.3 | 4.7 10^-30 Cm | e ([3]; Table 7, Dielectric Constant): 5.3; pKa ([3]; Table 7): 10.8 |
| c1ccc2ncccc2c1 [quinoline] | 19.4 | 7.6 | 7.0 | 22.0 | 9.0 | 7.6 10^-30 Cm |  |
| O=C1CCCN1 [2-pyrrolidone] | 19.4 | 11.3 | 17.4 | 28.4 |  | 7.7 10^-30 Cm | r [1]: 99.8; d ([3]; Table 7, Hildebrand Parameter): 28.4 MPa |
| NCc1ccccc1 [benzylamine] |  |  |  |  |  |  | pKa ([3]; Table 7): 9.3 |
| c1c[nH]cn1 [imidazole] |  |  |  |  |  |  | pKa ([3]; Table 7): 7.1 |
| CCCCN(CCCC)CCCC [tributylamine] |  |  |  |  |  |  | dh [2, 9]: 4.0 MPa; dp [2, 9]: 2.8 MPa; dd [2, 10]: 15.1 MPa; d [3, 11]: 15.9 MPa; mp ([3]; Table 6): 2.3 10^-30 Cm |
| C1CCNCC1 [piperidine] |  |  |  |  |  |  | e ([3]; Table 7, Dielectric Constant): 5.8; d ([3]; Table 7, Hildebrand Parameter): 19.3 MPa; gw ([3]; Table 7, Hydrogen Bonding): 89.0 |
| CN(C)N [1,1-dimethylhydrazine] |  |  |  |  |  |  | d ([3]; Table 7, Hildebrand Parameter): 19.8 MPa |
| CCN(CC)CC [triethylamine] |  |  |  |  |  |  | dh [2, 9]: 1.9 MPa; dp [2, 9]: 3.7 MPa; dd [2, 10]: 14.6 MPa; d [3, 11]: 15.3 MPa; mp ([3]; Table 6): 2.2 10^-30 Cm |
| Cc1ccccn1 [2-picoline] |  |  |  |  |  |  | e ([3]; Table 7, Dielectric Constant): 9.8; d ([3]; Table 7, Hildebrand Parameter): 20.9 MPa |
| CN(C)C=O [Dimethylformamide] | 17.4 | 11.3 | 13.7 |  | 37.0 | 11.2 10^-30 Cm | gw [3, 8]: 68.0 |
| CC(C)NC(C)C [diisopropylamine] |  |  |  |  |  |  | predicted interaction distance (r) ([1]; Table 6, second half, Hansen Method): 11.3; dh [2, 9]: 2.0 MPa; dp [2, 9]: 6.2 MPa; dd [2, 10]: 13.8 MPa; d [3, 11]: 15.2 MPa |
| CN1CCCC1=O [N-methyl-2-pyrrolidone] | 16.5 | 13.5 | 10.4 | 23.7 | 32.0 |  | solvent for undoped polyaniline [4]: solvent |
| C1COCCN1 [morpholine] | 16.0 | 10.1 | 11.4 | 22.1 | 7.3 | 5.0 10^-30 Cm | r [1]: 4.0; gw [3, 8]: 200.0; e ([3]; Table 7, Dielectric Constant): 7.3; d ([3]; Table 7, Hildebrand Parameter): 22.1 MPa; gw ([3]; Table 7, Hydrogen Bonding): 200.0 |
| CNNC [Dimethylhydrazine] | 15.3 | 11.0 | 5.9 | 19.8 |  |  | r [1]: 5.0 |
| c1ccncc1 [pyridine] | 17.6 | 7.7 | 10.1 |  | 12.3 | 7.3 10^-30 Cm | gw [3, 8]: 80.0 |
| C1CCNC1 [pyrrolidine] |  |  |  |  |  | 5.3 10^-30 Cm |  |
| CN(C)P(=O)(N(C)C)N(C)C [hexamethylphosporamide] | 18.3 | 11.3 | 8.6 | 23.2 | 30.0 | 17.6 10^-30 Cm | r [1]: 2.0; e ([3]; Table 7, Dielectric Constant): 30.0; d ([3]; Table 7, Hildebrand Parameter): 23.2 MPa |
| CCCCc1ccc(N)cc1 [4-Butylaniline] |  |  |  |  |  |  | dh [2, 9]: 6.6 MPa; dp [2, 9]: 9.1 MPa; dd [2, 10]: 16.9 MPa; d [3, 11]: 20.4 MPa |
